Reference: ChEMBL document CHEMBL1201862, “PubChem BioAssay data set” (2004)
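In this assay, cells in 96-well plates receive the compound at five concentrations for 48 hours. Endpoints are linearly interpolated between the surrounding concentrations. GI50 is the concentration that inhibits growth by half.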 Active and inactive are the calls of the source. No stated cut-off is given here; in the data, active = GI50 up to about 1.1 µM and inactive = higher.

Legend:
Assay in all cases: DTP human tumour cell line panel, 48 h
[1] = tested on: NCI/ADR-RES
[2] = tested on: BT-549
[3] = tested on: MDA-MB-435
[4] = tested on: SK-MEL-2
[5] = tested on: HT-29
[6] = tested on: OVCAR-3
[7] = tested on: HCT-15
[8] = tested on: PC-3
[9] = tested on: 786-0
[10] = tested on: M14
[11] = tested on: A498
[12] = tested on: UACC-257
[13] = tested on: Malme-3M
[14] = tested on: UO-31
[15] = tested on: NCI-H226
[16] = tested on: CAKI-1
[17] = tested on: TK-10
[18] = tested on: U-251
[19] = tested on: OVCAR-5
[20] = tested on: MDA-MB-231
[21] = tested on: HOP-92
[22] = tested on: RPMI-8226
[23] = tested on: A549
[24] = tested on: SK-MEL-5
[25] = tested on: SF-268
[26] = tested on: UACC-62
[27] = tested on: DU-145
[28] = tested on: K562
[29] = tested on: RXF 393
[30] = tested on: SNB-75
[31] = tested on: ACHN
[32] = tested on: T47D
[33] = tested on: SW-620
[34] = tested on: CCRF-CEM
[35] = tested on: SK-MEL-28
[36] = tested on: MCF7
[37] = tested on: EKVX
[38] = tested on: HOP-62
[39] = tested on: HCT-116
[40] = tested on: OVCAR-4
[41] = tested on: SN12C
[42] = tested on: HCC 2998
[43] = tested on: OVCAR-8
[44] = tested on: NCI-H460
[45] = tested on: SNB-19
[46] = tested on: KM12
[47] = tested on: IGROV-1
[48] = tested on: SF-295
[49] = tested on: MDA-N
[50] = tested on: SF-539
[51] = tested on: MOLT-4
[52] = tested on: NCI-H23
[53] = tested on: HL-60
[54] = tested on: COLO 205
[55] = tested on: SR
[56] = tested on: NCI-H522
[57] = tested on: SK-OV-3
[58] = tested on: Hs-578T
[59] = tested on: LOX IMVI
[60] = tested on: DMS-273

COc1ccc2c(c1)CC[C@@H]1[C@@H]2CC[C@]2(C)/C(=N/OCCN3CCCCC3)CC[C@@H]12
GI50 [1]: 10 µM (inactive)
GI50 [2]: 12.8 µM (inactive)
GI50 [3]: 4.56 µM (inactive)
GI50 [4]: 6.07 µM (inactive)
GI50 [5]: 1.66 µM (inactive)
GI50 [6]: 3.69 µM (inactive)
GI50 [7]: 2.03 µM
GI50 [8]: 4.74 µM (inactive)
GI50 [9]: 1.85 µM (inactive)
GI50 [10]: 2.42 µM (inactive)
GI50 [11]: 6.38 µM (inactive)
GI50 [12]: 2.55 µM (inactive)
GI50 [13]: 2.25 µM (inactive)
GI50 [14]: 3.19 µM (inactive)
GI50 [15]: 5.43 µM (inactive)
GI50 [16]: 1.94 µM (inactive)
GI50 [17]: 4.74 µM (inactive)
GI50 [18]: 8.09 µM (inactive)
GI50 [19]: 5.33 µM (inactive)
GI50 [20]: 8.41 µM (inactive)
GI50 [21]: 3.44 µM (inactive)
GI50 [22]: 2.62 µM (inactive)
GI50 [23]: 5.35 µM (inactive)
GI50 [24]: 2.65 µM (inactive)
GI50 [25]: 9.2 µM (inactive)
GI50 [26]: 2.06 µM (inactive)
GI50 [27]: 3.85 µM (inactive)
GI50 [28]: 2.79 µM (inactive)
GI50 [29]: 2.81 µM (inactive)
GI50 [30]: 5.69 µM (inactive)
GI50 [31]: 8.81 µM (inactive)
GI50 [32]: 5.46 µM (inactive)
GI50 [33]: 5.11 µM (inactive)
GI50 [34]: 3.28 µM (inactive)
GI50 [35]: 2.12 µM (inactive)
GI50 [36]: 6.95 µM (inactive)
GI50 [37]: 8.32 µM (inactive)
GI50 [38]: 6.25 µM (inactive)
GI50 [39]: 2.38 µM (inactive)
GI50 [40]: 12.2 µM (inactive)
GI50 [41]: 4.34 µM (inactive)
GI50 [42]: 2.89 µM (inactive)
GI50 [43]: 9.79 µM (inactive)
GI50 [44]: 2.5 µM (inactive)
GI50 [45]: 7.45 µM (inactive)
GI50 [46]: 3.61 µM (inactive)
GI50 [47]: 1.95 µM (inactive)
GI50 [48]: 3.52 µM (inactive)
GI50 [49]: 2.33 µM (inactive)
GI50 [50]: 2.77 µM (inactive)
GI50 [51]: 3.06 µM (inactive)
GI50 [52]: 11.4 µM (inactive)
GI50 [53]: 2.79 µM (inactive)
GI50 [54]: 1.55 µM (inactive)
GI50 [55]: 2.44 µM (inactive)
GI50 [56]: 5.27 µM (inactive)
GI50 [57]: 10.3 µM (inactive)
GI50 [58]: 6.76 µM (inactive)
GI50 [59]: 1.66 µM (inactive)

Cc1ccc(/C=C2\CN(C)CC3C2=NC(=S)NC3c2ccc(C)cc2)cc1 (configuration not stated)
GI50 [1]: 30.8 µM (inactive)
GI50 [2]: > 72.4 µM (inactive)
GI50 [3]: 16.7 µM (inactive)
GI50 [4]: > 30.7 µM (inactive)
GI50 [5]: 27.2 µM (inactive)
GI50 [6]: 38.6 µM (inactive)
GI50 [7]: 36 µM
GI50 [8]: 11 µM (inactive)
GI50 [9]: 86.3 µM (inactive)
GI50 [10]: 42.5 µM (inactive)
GI50 [11]: > 86.7 µM (inactive)
GI50 [12]: 62.4 µM (inactive)
GI50 [13]: 92.7 µM (inactive)
GI50 [14]: 43.2 µM (inactive)
GI50 [15]: > 100 µM (inactive)
GI50 [16]: > 77.1 µM (inactive)
GI50 [17]: > 76.4 µM (inactive)
GI50 [18]: 20.5 µM (inactive)
GI50 [19]: > 100 µM (inactive)
GI50 [20]: > 68.7 µM (inactive)
GI50 [21]: 1.69 µM (inactive)
GI50 [22]: 46.5 µM (inactive)
GI50 [23]: 35.3 µM (inactive)
GI50 [24]: 38.5 µM (inactive)
GI50 [25]: > 74.3 µM (inactive)
GI50 [26]: > 100 µM (inactive)
GI50 [27]: > 85.7 µM (inactive)
GI50 [28]: 38.7 µM (inactive)
GI50 [29]: 30.3 µM (inactive)
GI50 [30]: 60.8 µM (inactive)
GI50 [31]: > 100 µM (inactive)
GI50 [32]: 26 µM (inactive)
GI50 [33]: > 88.7 µM (inactive)
GI50 [34]: 13.8 µM (inactive)
GI50 [35]: > 100 µM (inactive)
GI50 [36]: 40.6 µM (inactive)
GI50 [37]: 9.93 µM (inactive)
GI50 [38]: > 100 µM (inactive)
GI50 [39]: 37.3 µM (inactive)
GI50 [40]: 26.9 µM (inactive)
GI50 [41]: 52.1 µM (inactive)
GI50 [42]: 16.1 µM (inactive)
GI50 [43]: 53.1 µM (inactive)
GI50 [44]: 41.8 µM (inactive)
GI50 [45]: > 61.9 µM (inactive)
GI50 [46]: 32.1 µM (inactive)
GI50 [47]: 13.7 µM (inactive)
GI50 [48]: 61.8 µM (inactive)
GI50 [49]: 22 µM (inactive)
GI50 [50]: > 100 µM (inactive)
GI50 [51]: 14.6 µM (inactive)
GI50 [52]: > 74 µM (inactive)
GI50 [53]: 31.3 µM (inactive)
GI50 [54]: 22.7 µM (inactive)
GI50 [55]: 29.9 µM (inactive)
GI50 [56]: 24 µM (inactive)
GI50 [57]: > 100 µM (inactive)
GI50 [58]: > 100 µM (inactive)
GI50 [59]: 34.7 µM (inactive)

CC(C)[Si]1(C(C)C)OCC2OC(N3C(=O)NC(=O)C[C@@H]3C(O)c3ccccc3)CC2O[Si](C(C)C)(C(C)C)O1 (some centres not stated)
GI50 [1]: 5.32 µM (inactive)
GI50 [2]: 18.1 µM (inactive)
GI50 [3]: 5.5 µM (inactive)
GI50 [4]: 13.4 µM (inactive)
GI50 [5]: 2.48 µM (inactive)
GI50 [6]: 4.83 µM (inactive)
GI50 [7]: 5.42 µM
GI50 [8]: 4.3 µM (inactive)
GI50 [9]: 5.93 µM (inactive)
GI50 [10]: 12.7 µM (inactive)
GI50 [11]: 7.21 µM (inactive)
GI50 [12]: 4.85 µM (inactive)
GI50 [13]: 5.41 µM (inactive)
GI50 [14]: 10.8 µM (inactive)
GI50 [15]: 2.15 µM (inactive)
GI50 [16]: 15.4 µM (inactive)
GI50 [17]: 9.89 µM (inactive)
GI50 [18]: 3.24 µM (inactive)
GI50 [19]: 13.5 µM (inactive)
GI50 [20]: 5.86 µM (inactive)
GI50 [21]: 7.26 µM (inactive)
GI50 [22]: 4.31 µM (inactive)
GI50 [23]: 11.2 µM (inactive)
GI50 [24]: 11.3 µM (inactive)
GI50 [25]: 4.14 µM (inactive)
GI50 [26]: 8.91 µM (inactive)
GI50 [27]: 13.2 µM (inactive)
GI50 [28]: 2.76 µM (inactive)
GI50 [29]: 5.27 µM (inactive)
GI50 [30]: 4.54 µM (inactive)
GI50 [31]: 7.11 µM (inactive)
GI50 [32]: 2.69 µM (inactive)
GI50 [33]: 3.4 µM (inactive)
GI50 [34]: 2.54 µM (inactive)
GI50 [35]: 4.51 µM (inactive)
GI50 [36]: 3.92 µM (inactive)
GI50 [37]: 8.2 µM (inactive)
GI50 [38]: 11.9 µM (inactive)
GI50 [39]: 4.36 µM (inactive)
GI50 [40]: 4.51 µM (inactive)
GI50 [41]: 3.86 µM (inactive)
GI50 [42]: 2.05 µM (inactive)
GI50 [43]: 6.19 µM (inactive)
GI50 [44]: 3.03 µM (inactive)
GI50 [45]: 9.93 µM (inactive)
GI50 [46]: 2.4 µM (inactive)
GI50 [47]: 4.74 µM (inactive)
GI50 [48]: 4.51 µM (inactive)
GI50 [49]: 4.3 µM (inactive)
GI50 [50]: 17 µM (inactive)
GI50 [51]: 2.31 µM (inactive)
GI50 [52]: 7.98 µM (inactive)
GI50 [53]: 2.65 µM (inactive)
GI50 [54]: 9.86 µM (inactive)
GI50 [55]: 1.68 µM (inactive)
GI50 [56]: 3.18 µM (inactive)
GI50 [57]: 5.71 µM (inactive)
GI50 [58]: 3.3 µM (inactive)
GI50 [59]: 5.24 µM (inactive)

NC(=O)c1cn(C2OC(CO)C(O)C2O)c2ncnc(N)c12 (configuration not stated)
GI50 [30]: 0.0422 µM (active)
GI50 [60]: 0.0381 µM (active)
GI50 [36]: 0.0902 µM (active)
GI50 [43]: 0.139 µM (active)
GI50 [47]: 0.0885 µM (active)
